Source: patent publication US11702402B2, “Small molecules that block proteasome-associated ubiquitin receptor RPN13 function and uses thereof” (DANA-FARBER CANCER INSTITUTE, INC., priority 2018, dated 2023)
Entries after “also recorded” stand apart in the source; their conditions may differ.

Assays:
Assay type in all cases: cell-based, Human
[1] = test system: normal PBMCs; test: Viability of normal PBMCs; details: 48 hours
Protocol: FIGS. 5A and 5B show PBMCs from normal healthy donor treated with WL40 and WL44 at the indicated concentrations for 48 hours. […]
(§1) The IC50 of WL40 for cell lines is shown.

[2] = test system: MM.1S cells co-cultured with patient pDCs; test: MM.1S co-culture with patient pDCs (WST); details: 48 hours
Text: as §1

[3] = test system: 20S proteasome; test: Proteasome activity assay in lysates of treated MM.1S cells; details: cellular extracts of MM.1S cells treated 1 μM or 10 μM for 3 hours
Protocol: (§2) MM.1S cells, which were treated with DMSO control, bortezomib, or WL40 at indicated concentration for 3 hours; protein lysates were analyzed for different proteasome activities (CT-L, chymotrypsin-like; T-L, trypsin-like; C-L, caspase-like). FIG. 20B is a bar graph showing percent proteasome activity after normalization with DMSO control (mean±SD; n=3). Recombinant 20S proteasome was incubated with DMSO, bortezomib, or WL40 for 30 minutes, followed by assessment of the above-noted proteasome activities. FIG. 20C MM.1S cells were pretreated with exemplary proteasome inhibitor MG132 (10 μM) for 1 hour, followed by addition of WL40 (400 nM) for 8 hours. […] Total protein lysates were subjected to immunoblots for Rpn13 and α-tubulin. […] FIG. 20E ANBL6.BR cells were treated with WL40 (400 nM) or RA190 (500 nM) for 16 hours; protein lysates were subjected to immunoblot analysis using anti-Rpn13 or anti-β-actin Abs.
MM.1S cells were treated with WL40 (1 μM or 10 μM) or Bortezomib (1 μM) for 3 hours; cells were then harvested and lysed in lysis buffer, followed by removal of debris by centrifugation. Total protein (25 μg) was analyzed for proteasome activity using 20S proteasome Assay Kit (Calbiochem), as previously described.^33

[4] = test system: MM.1R cells; test: MM.1R cell viability (WST); details: MM.1R (dexamethasone-resistant), 48 hours
Text: as §1

[5] = test system: p53/p21 apoptotic signaling axis; test: p53/p21 signaling immunoblot; details: ANBL6.BR; WL40 (1 μM) versus RA190 (1 μM)
[6] = test system: PARP, caspase-3, caspase-7, caspase-8, caspase-9; test: PARP/caspase immunoblot and caspase enzymatic activity
Protocol: FIGS. 22A to 22F show the mechanisms of WL40-induced MM cell death. […] MM.1S cells were treated with DMSO control or WL40 (200 nM) for 16 hours, and then analyzed for apoptosis using Annexin V/PI double staining assay (mean±SD; n=3; p<0.001). FIG. 22B is an immunoblot of MM.1S and ANBL6.BR cells, which were treated with DMSO control or WL40 (200 nM for MM.1S; 1 μM for ANBL6.BR) for 16 hours; protein lysates were then subjected to the immunoblotting using antibodies against poly ADP ribose polymerase (PARP), caspase-3, caspase-7, caspase-8, caspase-9, or β-actin. FL, full length; CF, cleaved fragment. FIG. 22C is a bar graph measuring enzymatic activity. MM.1S cells were treated with DMSO control or WL40 (200 nM) for 12 hours, followed by the measurement of caspase-3, caspase-8, or caspase-9 enzymatic activity (mean±SD; n=3; p<0.0001). FIG. 22D is an immunoblot of MM.1S and ANBL6.BR cells, which were treated with DMSO control or WL40 (200 nM for MM.1S; 1 μM for ANBL6.BR) for 16 hours; protein lysates were then subjected to the immunoblotting using specific antibodies against Cyclin-B1, Cell Division Cycle 25C (CDC25C), Cell Division Cycle 2 (CDCl2), or β-actin. […]

[7] = test system: RPMI-8226 cells; test: RPMI-8226 cell viability; details: p53-mutated RPMI-8226; 48 hours
Text: as §1

[8] = test system: polyubiquitinated (PolyUb) protein; test: Polyubiquitinated protein immunoblot in MM.1S and ANBL6.BR cells; details: MM.1S: WL40 200 nM, RA190 300 nM, bortezomib 5 nM; ANBL6.BR: WL40 1 μM 6 hours
Protocol: as §2
Cellular protein extracts were prepared using RIPA lysis buffer (50 mM Tris-HCl, 150 mM NaCl, 1% NP-40, 0.5% sodium deoxycholate, and 0.1% SDS). […]
Next, the effect of WL40 on additional MM cell lines, including p53-mutated RPMI-8226 cells or bortezomib-resistant ANBL6.BR cells, was evaluated. […]

[9] = test system: LC3A/B; test: Autophagy marker LC3A/B immunoblot; details: ANBL6.BR or MM.1S; versus DMSO or RA190
[10] = test system: MM.1S Len-resistant cells; test: MM.1S lenalidomide-resistant cell viability; details: 72 hours
Text: The experiment was repeated twice and JQRA concentration was increased (as indicated) at the second time.

| SMILES | viability of normal PBMCs ([1]; at the IC50, Wst-1) | viability of normal PBMCs ([1]; at the IC50 for MM cells, CellTiter-Glo) | viability of MM cells in co-culture [2] | 20S proteasomal activities (chymotrypsin-like, trypsin-like, caspase-like) [3] | cytotoxicity (cell viability) [4] | induction of p53/p21 signaling [5] | PARP cleavage (immunoblot) ([6]; 200 nM for MM.1S, 1 μM for ANBL6.BR, 16 hours) | caspase activation ([6]; MM.1S 200 nM, immunoblot 16 hours, enzymatic activity 12 hours) | cytotoxic activity (cell viability) [7] | PolyUb protein accumulation (immunoblot) [8] | LC3A/B level / LC3 activation [9] | cytotoxicity (percentage of viable cells) [10] |
| --- | --- | --- | --- | --- | --- | --- | --- | --- | --- | --- | --- | --- |
| O=C1CCC(N2C(=O)c3cccc(NCCOCCOCCOCCC(=O)N[C@@H](Cc4ccccc4)C(=O)N4C/C(=C\c5ccc(Cl)c(Cl)c5)C(=O)/C(=C/c5ccc(Cl)c(Cl)c5)C4)c3C2=O)C(=O)N1 (stereo partly drawn) [WL40] | do not significantly affect the viability | does not affect viability of normal PBMCs | dose-dependent decrease in the viability of MM cells | does not inhibit 20S proteasomal activities | more cytotoxic than the parental Rpn13 inhibitor RA190 | earlier induction of this pathway | proteolytic cleavage of Poly (ADP) ribose polymerase (PARP) | activation of caspase-3, caspase-7, caspase-8 and caspase-9 | cytotoxic activity | marked increase in PolyUb proteins; also recorded: more rapid and higher molecular weight PolyUb versus bortezomib | significant increase in LC3A/B; also recorded: more pronounced LC3 activation | – |
| Cl.N[C@@H](Cc1ccccc1)C(=O)N1C/C(=C/c2ccc(Cl)c(Cl)c2)C(=O)/C(=C\c2ccc(Cl)c(Cl)c2)C1 [RA190, reference compound] | – | – | – | – | – | – | – | – | – | – | – | more robust MM cytotoxicity |
